Key:
Assay type in all cases: in vivo
[1] = tested on: green peach aphid (Myzus persicae); experiment: Myzus persicae test (MYZUPE), ammonium salts in combination with penetration enhancers (Example C); settings: for Kill rate/% after 7 days, +AS (1000 ppm) / Kill rate/% after 7 days, +RME (1000 ppm) / Kill rate/% after 7 days, +RME + AS (each 1000 ppm) / Kill rate/% after 7 days, a.i.: Table C2, emulsifier 1 part; for Kill rate/% after 7 days, +AS (1000 ppm): active substance 60 g/ha + ammonium sulfate 1000 ppm; for Kill rate/% after 7 days, +RME (1000 ppm): active substance 60 g/ha + rape oil methyl ester 1000 ppm; for Kill rate/% after 7 days, +RME + AS (each 1000 ppm): active substance 60 g/ha + rape oil methyl ester and ammonium sulfate; for Kill rate/% after 7 days, a.i.: active substance 60 g/ha; for Kill rate/% after 7 days, a.i. / Kill rate/% after 6 days, a.i.: no additive; for Kill rate/% after 6 days, +AS (1000 ppm) / Kill rate/% after 6 days, +RME (1000 ppm) / Kill rate/% after 6 days, +RME + AS (each 1000 ppm) / Kill rate/% after 6 days, a.i.: Table C1
Description: (§1) Myzus persicae—Test (MYZUPE)
(§2) For the preparation of a suitable active substance preparation, 1 part by weight of active substance is mixed with the stated quantities of solvent and emulsifier and the concentrate is diluted to the desired concentration with emulsifier-containing water. When addition of ammonium salts, penetration enhancers or ammonium salts and penetration enhancers is necessary, these are in each case pipetted into the finished preparation solution in a concentration of 1000 ppm after dilution.
Paprika plants (Capsicum annuum) which are severely infested with the green peach aphid (Myzus persicae) are treated by spraying with the active substance preparation in the desired concentration.
(§3) After the desired time, the kill rate in % is determined. Here 100% means that all the animals were killed; 0% means that no animals were killed.

[2] = tested on: cotton aphid (Aphis gossypii); experiment: Aphis gossypii test (APHIGO), ammonium salts in combination with penetration enhancers (Example D); settings: for Kill rate/% after 7 days, +AS (1000 ppm) / Kill rate/% after 7 days, +RME (1000 ppm) / Kill rate/% after 7 days, +RME + AS (each 1000 ppm) / Kill rate/% after 7 days, a.i.: Table D2, emulsifier 1 part; for Kill rate/% after 7 days, +AS (1000 ppm): active substance 2.4 g/ha + ammonium sulfate 1000 ppm; for Kill rate/% after 7 days, +RME (1000 ppm): active substance 2.4 g/ha + rape oil methyl ester 1000 ppm; for Kill rate/% after 7 days, +RME + AS (each 1000 ppm): active substance 2.4 g/ha + rape oil methyl ester and ammonium sulfate; for Kill rate/% after 7 days, a.i.: active substance 2.4 g/ha; for Kill rate/% after 7 days, a.i. / Kill rate/% after 6 days, a.i.: no additive; for Kill rate/% after 6 days, +AS (1000 ppm) / Kill rate/% after 6 days, +RME (1000 ppm) / Kill rate/% after 6 days, +RME + AS (each 1000 ppm) / Kill rate/% after 6 days, a.i.: Table D1
Description: (§4) Aphis gossypii-Test (APHIGO)
as §2
(§5) Cotton leaves (Gossypium hirsutum) which are severely infested with the cotton aphid (Aphis gossypii) are sprayed with an active substance preparation with the desired concentration.
(§6) After the desired time, the kill rate in % is determined. Here 100% means that all the aphids were killed; 0% means that no aphids were killed.

[3] = tested on: green peach aphid (Myzus persicae); experiment: Myzus persicae test (MYZUPE), activity increase due to ammonium salts (Example A); settings: sprayed paprika plants; for Kill rate/% after 6 days, a.i.: no additive
Description: as §1
(§7) For the preparation of a suitable active substance preparation, 1 part by weight of active substance is mixed with the stated quantities of solvent and emulsifier and the concentrate is diluted to the desired concentration with emulsifier-containing water. When addition of ammonium salts is necessary, these are in each case pipetted into the finished preparation solution in a concentration of 1000 ppm after dilution.
Paprika plants (Capsicum annuum) which are severely infested by the green peach aphid (Myzus persicae) are treated by spraying with the active substance preparation in the desired concentration.
as §3

[4] = tested on: cotton aphid (Aphis gossypii); experiment: Aphis gossypii test (APHIGO), activity increase due to ammonium salts (Example B); settings: sprayed cotton leaves; for Kill rate/% after 6 days, a.i.: no additive
Description: as §4, §7, §5, §6

[5] = tested on: common spider mite (Tetranychus urticae); experiment: Tetranychus test (OP-resistant), ammonium salts in combination with penetration enhancers (Example F); settings: for Kill rate/% after 6 days, a.i.: no additive
Description: (§8) Tetranychus-Test (OP-Resistant)
as §2
(§9) Bean plants (Phaseolus vulgaris) which are severely infested by all stages of the common spider mite (Tetranychus urticae) are treated by spraying with the active substance preparation in the desired concentration.
(§10) After the desired time, the kill rate in % is determined. here 100% means that all the spider mites were killed; 0% means that no spider mites were killed.

[6] = tested on: common spider mite (Tetranychus urticae); experiment: Tetranychus test (OP-resistant), activity increase due to ammonium salts (Example E); settings: sprayed bean plants; for Kill rate/% after 6 days, +AS (1000 ppm): active substance 20 ppm + ammonium sulfate 1000 ppm; for Kill rate/% after 6 days, a.i.: active substance 20 ppm, no additive
Description: as §8, §7, §9, §10

[7] = active substance 20 ppm + ammonium sulfate 1000 ppm
[8] = active substance 4 ppm + ammonium sulfate 1000 ppm
[9] = active substance 20 ppm + rape oil methyl ester 1000 ppm
[10] = active substance 20 ppm + rape oil methyl ester and ammonium sulfate
[11] = active substance 0.8 ppm + ammonium sulfate 1000 ppm
[12] = active substance 0.8 ppm + rape oil methyl ester 1000 ppm
[13] = active substance 0.8 ppm + rape oil methyl ester and ammonium sulfate
[14] = active substance 4 ppm + rape oil methyl ester 1000 ppm
[15] = active substance 4 ppm + rape oil methyl ester and ammonium sulfate

`COc1cccc(S(=O)(=O)NCc2ccccc2)c1C#N` [Example 40] was tested, and the “Kill rate/% after 7 days, +AS (1000 ppm)” value [1] was 0%, the “Kill rate/% after 7 days, +RME (1000 ppm)” value [1] was 40% and the “Kill rate/% after 7 days, +RME + AS (each 1000 ppm)” value [1] was 50%. The “Kill rate/% after 7 days, a.i.” value [1] was 0%.
In the case of `COc1cccc(S(=O)(=O)NC(C)C)c1C#N` [Example 41], the “Kill rate/% after 7 days, +AS (1000 ppm)” value [2] is reported as 80%, the “Kill rate/% after 7 days, +RME (1000 ppm)” value [2] is reported as 10% and the “Kill rate/% after 7 days, +RME + AS (each 1000 ppm)” value [2] is reported as 93%. The “Kill rate/% after 7 days, a.i.” value [2] was 50%.
For `C#CCN1C(=N)c2c(OC)cccc2S1(=O)=O` [Example 42-A], the “Kill rate/% after 6 days, +AS (1000 ppm)” value [3, 7] was 45%, the “Kill rate/% after 6 days, a.i.” value ([3]; active substance 20 ppm) was 0% and the “Kill rate/% after 6 days, +AS (1000 ppm)” value [4, 8] was 55%. For the same compound, the “Kill rate/% after 6 days, a.i.” value ([4]; active substance 4 ppm) was 15%, the “Kill rate/% after 6 days, +AS (1000 ppm)” value [4, 7] was 98% and the “Kill rate/% after 6 days, a.i.” value ([4]; active substance 20 ppm) was 30%. The “Kill rate/% after 6 days, +AS (1000 ppm)” value [1, 7] was 45%, the “Kill rate/% after 6 days, +RME (1000 ppm)” value [1, 9] was 90% and the “Kill rate/% after 6 days, +RME + AS (each 1000 ppm)” value [1, 10] was 98%. The “Kill rate/% after 6 days, a.i.” value ([1]; active substance 20 ppm) was 0%, the “Kill rate/% after 6 days, +AS (1000 ppm)” value [5, 11] was 30% and the “Kill rate/% after 6 days, +RME (1000 ppm)” value [5, 12] was 45%. For the same compound, the “Kill rate/% after 6 days, +RME + AS (each 1000 ppm)” value [5, 13] was 80%, the “Kill rate/% after 6 days, a.i.” value ([5]; active substance 0.8 ppm) was 50% and the “Kill rate/% after 6 days, +AS (1000 ppm)” value [5, 8] was 50%. For the same compound, the “Kill rate/% after 6 days, +RME (1000 ppm)” value [5, 14] was 75%, the “Kill rate/% after 6 days, +RME + AS (each 1000 ppm)” value [5, 15] was 95% and the “Kill rate/% after 6 days, a.i.” value ([5]; active substance 4 ppm) was 70%.
`C#CCNS(=O)(=O)c1cccc(OC)c1C#N` [Example 42] was tested, and the “Kill rate/% after 6 days, +AS (1000 ppm)” value [3, 7] was 20%, the “Kill rate/% after 6 days, a.i.” value ([3]; active substance 20 ppm) was 5% and the “Kill rate/% after 6 days, +AS (1000 ppm)” value [1, 7] was 20%. For the same compound, the “Kill rate/% after 6 days, +RME (1000 ppm)” value [1, 9] was 25%, the “Kill rate/% after 6 days, +RME + AS (each 1000 ppm)” value [1, 10] was 70% and the “Kill rate/% after 6 days, a.i.” value ([1]; active substance 20 ppm) was 5%. For the same compound, the “Kill rate/% after 6 days, +AS (1000 ppm)” value ([1]; active substance 100 ppm + ammonium sulfate 1000 ppm) was 80%, the “Kill rate/% after 6 days, +RME (1000 ppm)” value ([1]; active substance 100 ppm + rape oil methyl ester 1000 ppm) was 99% and the “Kill rate/% after 6 days, +RME + AS (each 1000 ppm)” value ([1]; active substance 100 ppm + rape oil methyl ester and ammonium sulfate) was 100%. For the same compound, the “Kill rate/% after 6 days, a.i.” value ([1]; active substance 100 ppm) was 75%.
For `C=CCNS(=O)(=O)c1cccc(OC)c1C#N` [Example 44], the “Kill rate/% after 6 days, +AS (1000 ppm)” value [4, 8] was 25%, the “Kill rate/% after 6 days, a.i.” value ([4]; active substance 4 ppm) was 5% and the “Kill rate/% after 6 days, +AS (1000 ppm)” value [1, 8] was 15%. The “Kill rate/% after 6 days, +RME (1000 ppm)” value [1, 14] was 20%, the “Kill rate/% after 6 days, +RME + AS (each 1000 ppm)” value [1, 15] was 30% and the “Kill rate/% after 6 days, a.i.” value ([1]; active substance 4 ppm) was 10%. The “Kill rate/% after 6 days, +AS (1000 ppm)” value [1, 7] was 70%, the “Kill rate/% after 6 days, +RME (1000 ppm)” value [1, 9] was 85% and the “Kill rate/% after 6 days, +RME + AS (each 1000 ppm)” value [1, 10] was 98%. The “Kill rate/% after 6 days, a.i.” value ([1]; active substance 20 ppm) was 85%, the “Kill rate/% after 6 days, +AS (1000 ppm)” value [2, 8] was 25% and the “Kill rate/% after 6 days, +RME (1000 ppm)” value [2, 14] was 45%. The “Kill rate/% after 6 days, +RME + AS (each 1000 ppm)” value [2, 15] was 55%, the “Kill rate/% after 6 days, a.i.” value ([2]; active substance 4 ppm) was 5% and the “Kill rate/% after 6 days, +AS (1000 ppm)” value [6] was 70%. For the same compound, the “Kill rate/% after 6 days, a.i.” value [6] was 40%.
`COc1cccc2c1C(N)=NS2(=O)=O` [Example 45-B] was tested, and the “Kill rate/% after 6 days, +AS (1000 ppm)” value [3, 8] was 60% and the “Kill rate/% after 6 days, a.i.” value ([3]; active substance 4 ppm) was 35%.
For `COc1cccc(S(=O)(=O)NC2CC2)c1C#N` [Example 83], the “Kill rate/% after 7 days, +AS (1000 ppm)” value [1] was 0%, the “Kill rate/% after 7 days, +RME (1000 ppm)” value [1] was 10% and the “Kill rate/% after 7 days, +RME + AS (each 1000 ppm)” value [1] was 75%. The “Kill rate/% after 7 days, a.i.” value [1] was 0%, the “Kill rate/% after 7 days, +AS (1000 ppm)” value [2] was 55% and the “Kill rate/% after 7 days, +RME (1000 ppm)” value [2] was 30%. The “Kill rate/% after 7 days, +RME + AS (each 1000 ppm)” value [2] was 85% and the “Kill rate/% after 7 days, a.i.” value [2] was 10%.
For `COc1cccc(S(=O)(=O)N(C)C)c1C#N` [Example 215], the “Kill rate/% after 7 days, +AS (1000 ppm)” value [1] was 20%, the “Kill rate/% after 7 days, +RME (1000 ppm)” value [1] was 40% and the “Kill rate/% after 7 days, +RME + AS (each 1000 ppm)” value [1] was 75%. The “Kill rate/% after 7 days, a.i.” value [1] was 0%.
With `C=CCN(C)S(=O)(=O)c1cccc(OC)c1C#N` [Example 225] the “Kill rate/% after 6 days, +AS (1000 ppm)” value [4, 7] was 75%, the “Kill rate/% after 6 days, a.i.” value ([4]; active substance 20 ppm) was 35% and the “Kill rate/% after 6 days, +AS (1000 ppm)” value [1, 8] was 0%. For the same compound, the “Kill rate/% after 6 days, +RME (1000 ppm)” value [1, 14] was 5%, the “Kill rate/% after 6 days, +RME + AS (each 1000 ppm)” value [1, 15] was 35% and the “Kill rate/% after 6 days, a.i.” value ([1]; active substance 4 ppm) was 0%. The “Kill rate/% after 6 days, +AS (1000 ppm)” value [6] was 80% and the “Kill rate/% after 6 days, a.i.” value [6] was 20%.
With `N#Cc1ccccc1S(N)(=O)=O` [Example 226] the “Kill rate/% after 6 days, +AS (1000 ppm)” value [1, 7] was 10%, the “Kill rate/% after 6 days, +RME (1000 ppm)” value [1, 9] was 25% and the “Kill rate/% after 6 days, +RME + AS (each 1000 ppm)” value [1, 10] was 50%. The “Kill rate/% after 6 days, a.i.” value ([1]; active substance 20 ppm) was 10%, the “Kill rate/% after 6 days, +AS (1000 ppm)” value [2, 11] was 0% and the “Kill rate/% after 6 days, +RME (1000 ppm)” value [2, 12] was 20%. The “Kill rate/% after 6 days, +RME + AS (each 1000 ppm)” value [2, 13] was 35%, the “Kill rate/% after 6 days, a.i.” value ([2]; active substance 0.8 ppm) was 0% and the “Kill rate/% after 6 days, +AS (1000 ppm)” value [2, 8] was 20%. For the same compound, the “Kill rate/% after 6 days, +RME (1000 ppm)” value [2, 14] was 35%, the “Kill rate/% after 6 days, +RME + AS (each 1000 ppm)” value [2, 15] was 55% and the “Kill rate/% after 6 days, a.i.” value ([2]; active substance 4 ppm) was 20%. For the same compound, the “Kill rate/% after 6 days, +AS (1000 ppm)” value [5, 7] was 70%, the “Kill rate/% after 6 days, +RME (1000 ppm)” value [5, 9] was 60% and the “Kill rate/% after 6 days, +RME + AS (each 1000 ppm)” value [5, 10] was 90%. The “Kill rate/% after 6 days, a.i.” value ([5]; active substance 20 ppm) was 50%.

Source: patent publication US8604068B2, “Insecticidal compositions of 2-cyanobenzene sulfonamide compounds and isomeric forms thereof having improved effect” (Bayer CropScience AG, priority 2007, dated 2013)
